In US12528761B2, “Thyromimetics” (Autobahn Therapeutics, Inc., priority 2020, dated 2026):

Assays:
TRα = molecular target: T1, TRα (Homo sapiens, UniProt P10827); assay: TR reporter-gene assay (Gal4 DBD hybrid, luciferase), TRα; format: cell-based; settings: HEK293-derived reporter cells, 24 hr treatment; read-out: TRα EC50
T1 construct: expressed in transfected cells; host or cells: HEK293
T1 sequence (P10827 1-410 isoform P10827-2): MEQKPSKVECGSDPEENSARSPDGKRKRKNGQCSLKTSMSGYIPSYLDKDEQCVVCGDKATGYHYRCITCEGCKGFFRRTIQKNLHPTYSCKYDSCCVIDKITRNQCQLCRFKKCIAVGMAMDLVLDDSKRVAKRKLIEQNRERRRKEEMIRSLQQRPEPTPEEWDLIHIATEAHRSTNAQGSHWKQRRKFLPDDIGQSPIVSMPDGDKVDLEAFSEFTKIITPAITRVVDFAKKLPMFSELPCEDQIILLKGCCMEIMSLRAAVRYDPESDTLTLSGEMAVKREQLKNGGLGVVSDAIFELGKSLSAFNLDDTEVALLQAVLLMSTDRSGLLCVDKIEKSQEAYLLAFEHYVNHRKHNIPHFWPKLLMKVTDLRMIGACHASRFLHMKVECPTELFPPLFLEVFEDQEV
In short: (§1)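 HEK293 reporter cells expressing Gal4-DBD/TR ligand-binding hybrids driving firefly luciferase from a Gal4 UAS; cells pre-incubated 6 h, then treated 24 h at 37 °C in medium with 10% charcoal-stripped FBS (final DMSO 0.1–0.4%), in duplicate. Read-out was luminescence (RLU).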

TRβ = molecular target: T2, TRβ (Homo sapiens, UniProt P10828); assay: TR reporter-gene assay (Gal4 DBD hybrid, luciferase), TRβ; format: cell-based; settings: for EC50: HEK293-derived reporter cells, 24 hr treatment, read-out: TRβ EC50; for T3-SI (selectivity index, EC50 (TRα)/EC50 (TRβ)): class symbols
T2 construct: expressed in transfected cells; host or cells: HEK293
T2 sequence (P10828 217-461 limits assumed): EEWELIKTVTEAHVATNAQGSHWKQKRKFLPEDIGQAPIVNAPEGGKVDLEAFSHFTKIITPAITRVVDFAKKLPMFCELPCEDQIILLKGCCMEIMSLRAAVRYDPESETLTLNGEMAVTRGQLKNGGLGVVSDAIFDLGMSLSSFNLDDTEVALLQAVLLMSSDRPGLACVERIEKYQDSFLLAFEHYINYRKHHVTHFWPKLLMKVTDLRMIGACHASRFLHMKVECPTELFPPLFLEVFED
In short: as §1

[1] = Brain levels of parent acid after dosing prodrug (FIG. 1); format: in vivo; settings: compared with dosing Compound 15 itself
From the text: The acid compounds of the present invention (R^1=—OR^1c and R^1c=H) are active agonists selectively activating the TRβ receptor. The amide compounds of the present invention (R^1=—NR^1aR^1b) may act as substrates for the specific hydrolase enzyme fatty acid-amide hydrolase (FAAH), which cleaves the amide, liberating the thyromimetic. Thus, prodrug conversion to drug is enhanced in tissues that express high levels of FAAH such as the central nervous system. […] The ester compounds of the present invention (R^1=—OR^1c and R^1c≠H) are also prodrugs, typically processed through the action of esterases which may exist selectively in specific tissues.

[2] = molecular target: T3, recombinant human FAAH (rhFAAH) (Homo sapiens, UniProt O00519); assay: FAAH substrate evaluation (formation of acid metabolite, LC-MS/MS); format: biochemical; parameters: key: A: ke is equal to or less than 1.0; B: ke is greater than 1.0 and less than or equal to 2.5; C: ke is greater than 2.5; NC: no conversion; settings: 0.5 ng/μL rhFAAH, 1 μM test compound, pH 8.0, room temperature, 0-60 minutes
T3 construct: purchased Cayman Chemical (Ann Arbor, MI, USA)
T3 sequence (O00519 1-579): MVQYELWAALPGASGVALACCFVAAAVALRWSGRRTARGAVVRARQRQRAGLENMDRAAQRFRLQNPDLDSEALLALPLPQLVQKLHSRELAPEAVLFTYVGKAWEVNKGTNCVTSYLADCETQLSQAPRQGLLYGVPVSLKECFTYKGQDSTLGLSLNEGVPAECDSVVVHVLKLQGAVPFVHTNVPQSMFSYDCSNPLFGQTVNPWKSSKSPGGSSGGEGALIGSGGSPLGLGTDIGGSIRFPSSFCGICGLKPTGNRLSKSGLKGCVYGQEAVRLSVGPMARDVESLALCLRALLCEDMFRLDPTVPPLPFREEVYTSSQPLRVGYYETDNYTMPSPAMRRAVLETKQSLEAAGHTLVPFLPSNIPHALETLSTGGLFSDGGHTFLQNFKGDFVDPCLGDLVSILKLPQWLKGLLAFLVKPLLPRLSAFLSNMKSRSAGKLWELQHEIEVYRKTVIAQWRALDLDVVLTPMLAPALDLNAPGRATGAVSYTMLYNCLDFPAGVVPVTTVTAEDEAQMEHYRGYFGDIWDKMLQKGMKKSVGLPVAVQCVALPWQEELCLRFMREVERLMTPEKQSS
In short: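 Test compound at 1 μM incubated at room temperature with 0.5 ng/μL rhFAAH, 0.1% BSA in Tris-EDTA pH 8.0; parallel incubations with 1 μM PF-3845 inhibitor. Samples quenched at 0-60 min; acid metabolite quantified by LC-MS/MS, ke taken as slope of metabolite concentration versus time.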

| SMILES | EC50 (TRα) | EC50 (TRβ) | T3-SI (selectivity index, EC50 (TRα)/EC50 (TRβ)) (TRβ) | brain levels of the parent acid Compound 15 [1] | ke, observed rate constant for the acid metabolite formation [2] |
| --- | --- | --- | --- | --- | --- |
| CC(C)c1cc(Cc2c(Cl)cc(CCCC(=O)O)cc2Cl)ccc1O [Compound 16, 4-(3,5-dichloro-4-(4-hydroxy-3-isopropylbenzyl)phenyl)butanoic acid] | > 1000 nM | 100 to 1000 nM | +++ (T3-SI > 30×) | markedly higher brain levels | – |
| CON(C)C(=O)Cc1cc(Cl)c(Cc2ccc(O)c(C(C)C)c2F)c(Cl)c1 [Compound 105, 2-(3,5-dichloro-4-(2-fluoro-4-hydroxy-3-isopropylbenzyl)phenyl)-N-methoxy-N-methylacetamide] | – | > 1000 nM | – | – | NC |
| COC(=O)CCc1cc(Cl)c(Cc2ccc(O)c(C(C)c3ccc(F)cc3)c2F)c(Cl)c1 (stereo not shown) [Compound 17, methyl 3-(3,5-dichloro-4-(2-fluoro-3-(1-(4-fluorophenyl)ethyl)-4-hydroxybenzyl)phenyl)propanoate] | – | – | – | markedly higher brain levels | – |
| CONC(=O)Cc1cc(Cl)c(Cc2ccc(O)c(C(C)C)c2F)c(Cl)c1 [Compound 208, 2-(3,5-dichloro-4-(2-fluoro-4-hydroxy-3-isopropylbenzyl)phenyl)-N-methoxyacetamide] | > 1000 nM | 100 to 1000 nM | ++ (3× < T3-SI ≤ 30×) | – | A (ke is equal to or less than 1.0) |
| CNC(=O)CSCc1cc(C)c(Cc2ccc(O)c(C(C)C)c2)c(Cl)c1F [Compound 217, 2-((3-chloro-2-fluoro-4-(4-hydroxy-3-isopropylbenzyl)-5-methylbenzyl)thio)-N-methylacetamide] | > 1000 nM | > 1000 nM | ++ (3× < T3-SI ≤ 30×) | – | C (ke is greater than 2.5) |
| CCNC(=O)CSc1cc(Cl)c(Cc2ccc(O)c(C(C)C)c2)c(Cl)c1 [Compound 186, 2-((3,5-dichloro-4-(4-hydroxy-3-isopropylbenzyl)phenyl)thio)-N-ethylacetamide] | – | – | – | – | A (ke is equal to or less than 1.0) |
